“Also recorded” adds a separate entry of the source.
Key:
NOD mice = experiment: Gestational taurine supplementation in NOD mice: diabetes onset, insulitis and endocrine pancreas development; format: in vivo
Source text: Pregnant NOD mice (maintained as in Example 13) were supplemented with 2.5% of taurine in drinking water during gestation. Pups were either sacrificed at 14 days of age, and pancreata were collected and fixed for histology as depicted in FIG. 16, or followed until glucosurea was apparent.

fetal pancreas = experiment: Fetal pancreatic vascularization with taurine supplementation; format: in vivo, Wistar rats; conditions: LP diet + taurine in drinking water; fetal day 21.5
Method: Animals and diets were as described above in Example 1. The fetal pancreas was removed at day 21.5. Vascular density, expressed as a percent of area, and number of blood vessels per unit area were evaluated.

fetal islet cells = experiment: IL1β-induced apoptosis in cultured fetal islets (TUNEL); format: cell-based, Wistar rats; conditions: IL1β 50 U/ml
Method: The effect of in vitro taurine on the effect of IL1β-induced apoptosis was assessed. Fetal islets were isolated as described above in Example 1. On the 5th day of culture, islets were rinsed twice with serum free DME/F12 medium (1:1, v/v, Gibco, Paisley, Scotland) and were incubated in this medium supplemented with taurine at 0.3 or 3 mmol/l for 48 hours. For the final 24 hours of this incubation, IL1β (Endogen, Woburn, Mass.) was added to the incubation medium at a level of 50 U/ml. Apoptosis was quantified by confocal microscopy using TUNEL method, as outlined in Example 1.

[1] = 3 mmol/l taurine; SIN-1
Method: Chemiluminescence measurements. Luminol (5-amino-2,3-dihydro-1-4-phtalazinedione) at 400 μmol/l (Sigma Chemical Co.), taurine (0.3 or 3 mmol/l), methionine (0.1 or 1 mmol/l) and β-alanine (0.3 or 3 mmol/l) stock solutions were prepared in PBS. Sydnonimine (SIN-1), also known as 3-morpholinosydnonimine, a source of peroxynitrite, was purchased from Sigma Chemical Co. SIN-1 was prepared as 100 μmol in 1 mol/l NaOH. A reaction was initiated by simultaneous injection of luminol and SIN-1 into wells containing PBS either alone or with supplemental amino acid levels as noted above. Chemiluminescence emitted by luminol in the presence of peroxynitrite was measured every 30 seconds over 20 minutes in a chemifluorophotometer (MicroLumat LB96P, EG&G BERTHOLD), and was quantified as light intensity (10^8 RLU).
Nitric oxide is a reactive free radical which leads to peroxynitrite formation, another reactive free radical, by interaction with superoxide (NO+OO^−→ONOO^−). […] Luminol-derived chemiluminescence induced by peroxynitrite produced by the decomposition of sydnonimine (SIN-1) was evaluated to investigate the possibility that taurine quenched the peroxynitrite formed from NO.

Structure (SMILES): NCCS(=O)(=O)O [taurine, 2-aminoethylsulfonic acid]
- proportion of IGF-II-immunoreactive islet cells (NOD mice; 14 days of age, p<0.01): greater proportion
- mean islet area (NOD mice; 14 days of age, p<0.05): significantly smaller
- proportion of proliferating islet cells (NOD mice; 14 days of age, p<0.05): greater proportion
- number of apoptotic cells in islets (NOD mice; NOD female mice, 14 days of age, vs control animals): reduced nearly in half; also recorded: less apoptotic cells
- survival (NOD mice; female and male NOD mice, Log Rank and Wilcoxon tests): improved survival
- reduction of insulitis (NOD mice; insulitis appearing at 8 weeks, 2.5% taurine in drinking water during gestation): 90%
- insulin/glucagon ratio (NOD mice; small islets, NOD female mice): No difference
- percentage of PCNA positive cells (cell proliferation) (NOD mice; small islets, NOD female mice): significant increase
- percentage of area stained for glucagon (alpha cells) (NOD mice; small islets, NOD female mice): significantly increased
- percentage of area stained for insulin (β mass) (NOD mice; small islets, NOD female mice): significant increase
- age by which 50% of mice became diabetic (NOD mice; taurine treatment n=51, controls 16 weeks, p<0.001): 26 weeks
- blood vessel numbers per unit area (fetal pancreas): restoring both vascularization parameters to the level of the control groups
- vascular density (percent of area) (fetal pancreas): restoring both vascularization parameters to the level of the control groups
- rate of IL1β-induced apoptosis in islet cells (fetal islet cells; C diet group, only the high dose of taurine (3 mmol/l)): decreased significantly
- number of islet cells positive for IL1β-induced apoptosis (fetal islet cells; LP diet group, taurine 0.3 mmol/l and 3.0 mmol/l): significantly decreased
- luminol chemiluminescence (peroxynitrite quenching) [1]: dramatically decreased

Source: US20030180345A1, “Compositions and methods for inhibiting islet dysfunction and autoimmune disorders” (priority 2000, published 2003)
